# Activity calls are given as the source filed them.
# How the values were obtained:
# Protein Rev = Protein Rev (Human immunodeficiency virus type 1 group M subtype B (isolate HXB2)(HIV-1), UniProt P04618); assay: inhibitors of Rev binding to RRE RNA, dose response, biochemical, fluorescence polarization, HIV-1 (AID 434976); parameters: species or system Human immunodeficiency virus 1
# [1] = target: Female germline-specific tumor suppressor gld-1 (Caenorhabditis elegans, UniProt Q17339); assay: inhibitors of GLD-1 binding to TGE RNA, dose response, biochemical, fluorescence polarization, C. elegans (AID 2802);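 further: fluorescence polarization of labeled TGE RNA bound by purified gld-1 protein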
# Female germline-specific tumor suppressor gld-1, sequence (Q17339 whole entry): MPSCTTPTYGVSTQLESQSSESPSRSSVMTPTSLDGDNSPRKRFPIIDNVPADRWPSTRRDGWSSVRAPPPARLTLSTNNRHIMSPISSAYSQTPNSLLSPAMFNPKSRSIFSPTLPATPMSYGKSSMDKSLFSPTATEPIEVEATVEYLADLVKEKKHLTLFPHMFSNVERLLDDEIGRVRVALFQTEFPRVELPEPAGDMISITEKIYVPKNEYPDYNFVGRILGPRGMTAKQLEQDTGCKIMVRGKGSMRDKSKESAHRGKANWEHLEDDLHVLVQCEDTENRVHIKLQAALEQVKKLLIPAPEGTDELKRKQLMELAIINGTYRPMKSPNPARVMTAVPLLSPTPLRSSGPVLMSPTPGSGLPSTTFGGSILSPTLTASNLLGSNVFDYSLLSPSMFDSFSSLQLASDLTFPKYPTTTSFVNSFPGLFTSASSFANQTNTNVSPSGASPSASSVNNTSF
# Cytochrome P450 2C9 [2] = target: T1, Cytochrome P450 2C9 (Homo sapiens, UniProt P11712); details: Potency
# T1 sequence (P11712 whole entry): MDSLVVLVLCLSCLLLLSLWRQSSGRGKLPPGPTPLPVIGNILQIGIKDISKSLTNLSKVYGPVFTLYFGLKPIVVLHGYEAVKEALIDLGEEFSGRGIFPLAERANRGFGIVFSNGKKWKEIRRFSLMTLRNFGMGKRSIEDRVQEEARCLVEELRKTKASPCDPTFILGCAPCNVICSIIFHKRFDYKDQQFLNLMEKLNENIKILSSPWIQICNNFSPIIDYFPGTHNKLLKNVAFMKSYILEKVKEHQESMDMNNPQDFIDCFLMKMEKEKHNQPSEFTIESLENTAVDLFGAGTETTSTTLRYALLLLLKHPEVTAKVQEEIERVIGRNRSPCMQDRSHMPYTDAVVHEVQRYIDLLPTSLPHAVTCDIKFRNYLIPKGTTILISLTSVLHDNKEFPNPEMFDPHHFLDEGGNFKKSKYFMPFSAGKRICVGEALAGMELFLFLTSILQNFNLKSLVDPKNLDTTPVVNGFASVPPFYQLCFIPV
# Cytochrome P450 2C19 [3] = target: T2, Cytochrome P450 2C19 (Homo sapiens, UniProt P33261); assay: qHTS Assay for Inhibitors and Substrates of Cytochrome P450 2C19. [Related pubchem assays: 410 ]; format: ADME; details: read-out: Potency
# T2 sequence (P33261 whole entry): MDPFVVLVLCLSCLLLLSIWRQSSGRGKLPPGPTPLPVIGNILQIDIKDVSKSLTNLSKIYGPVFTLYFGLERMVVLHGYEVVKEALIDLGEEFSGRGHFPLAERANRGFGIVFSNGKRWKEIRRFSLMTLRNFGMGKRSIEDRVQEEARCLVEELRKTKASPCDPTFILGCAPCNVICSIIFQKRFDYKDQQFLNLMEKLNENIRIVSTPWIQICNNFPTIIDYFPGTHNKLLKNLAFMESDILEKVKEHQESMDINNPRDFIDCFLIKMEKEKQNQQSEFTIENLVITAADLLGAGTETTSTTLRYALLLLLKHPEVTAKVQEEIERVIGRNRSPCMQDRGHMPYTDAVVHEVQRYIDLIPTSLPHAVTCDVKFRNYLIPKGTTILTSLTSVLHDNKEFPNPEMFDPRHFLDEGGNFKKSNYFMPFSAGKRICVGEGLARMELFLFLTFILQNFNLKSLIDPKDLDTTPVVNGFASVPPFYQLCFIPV
# Cytochrome P450 2D6 [4] = target: T3, Cytochrome P450 2D6 (Homo sapiens, UniProt P10635)
# T3 sequence (P10635 whole entry): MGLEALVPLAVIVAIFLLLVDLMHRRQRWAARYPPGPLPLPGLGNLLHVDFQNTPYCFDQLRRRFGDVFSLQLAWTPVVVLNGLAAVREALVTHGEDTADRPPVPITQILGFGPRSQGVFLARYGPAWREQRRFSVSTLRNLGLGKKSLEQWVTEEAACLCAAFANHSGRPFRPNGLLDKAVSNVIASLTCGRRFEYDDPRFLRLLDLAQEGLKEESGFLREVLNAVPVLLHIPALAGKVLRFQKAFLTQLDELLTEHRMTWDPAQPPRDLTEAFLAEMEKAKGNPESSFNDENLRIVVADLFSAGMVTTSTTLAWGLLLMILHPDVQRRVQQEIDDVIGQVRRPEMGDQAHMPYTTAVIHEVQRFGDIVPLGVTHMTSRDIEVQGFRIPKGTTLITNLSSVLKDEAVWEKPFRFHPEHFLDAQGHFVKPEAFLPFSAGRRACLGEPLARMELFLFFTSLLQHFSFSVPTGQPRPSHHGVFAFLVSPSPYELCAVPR
# Cytochrome P450 2D6 [5] = target: T3, Cytochrome P450 2D6; assay: qHTS Assay for Inhibitors and Substrates of Cytochrome P450 2D6. [Related pubchem assays: 410 ]; format: ADME; details: read-out: Potency
# Bcl-2-like protein 10 = target: T4, Bcl-2-like protein 10 (Homo sapiens, UniProt Q9HD36); assay: displacers of TR3 peptide from Bcl-B, primary screen, selectivity assay for Bfl-1 inhibitor project, biochemical, fluorescence polarization, FITC-TR3 peptide (AID 748);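 further: fluorescence polarization from a fluorescein-labelled TR3 peptide binding purified Bcl-B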
# T4 sequence (Q9HD36 whole entry): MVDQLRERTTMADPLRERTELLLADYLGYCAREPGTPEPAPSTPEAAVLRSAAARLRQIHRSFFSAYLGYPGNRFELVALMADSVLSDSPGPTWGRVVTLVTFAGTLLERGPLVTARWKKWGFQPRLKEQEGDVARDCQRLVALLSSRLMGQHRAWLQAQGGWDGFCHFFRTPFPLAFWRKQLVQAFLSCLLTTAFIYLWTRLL
# [6] = target: Peroxisome proliferator-activated receptor gamma/Nuclear receptor coactivator 1 (Homo sapiens, UniProt P37231); format: functional;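 further: agonist potency as compounds enhance coactivator SRC-1 recruitment to PPARgamma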
# Peroxisome proliferator-activated receptor gamma/Nuclear receptor coactivator 1, sequence (P37231 whole entry): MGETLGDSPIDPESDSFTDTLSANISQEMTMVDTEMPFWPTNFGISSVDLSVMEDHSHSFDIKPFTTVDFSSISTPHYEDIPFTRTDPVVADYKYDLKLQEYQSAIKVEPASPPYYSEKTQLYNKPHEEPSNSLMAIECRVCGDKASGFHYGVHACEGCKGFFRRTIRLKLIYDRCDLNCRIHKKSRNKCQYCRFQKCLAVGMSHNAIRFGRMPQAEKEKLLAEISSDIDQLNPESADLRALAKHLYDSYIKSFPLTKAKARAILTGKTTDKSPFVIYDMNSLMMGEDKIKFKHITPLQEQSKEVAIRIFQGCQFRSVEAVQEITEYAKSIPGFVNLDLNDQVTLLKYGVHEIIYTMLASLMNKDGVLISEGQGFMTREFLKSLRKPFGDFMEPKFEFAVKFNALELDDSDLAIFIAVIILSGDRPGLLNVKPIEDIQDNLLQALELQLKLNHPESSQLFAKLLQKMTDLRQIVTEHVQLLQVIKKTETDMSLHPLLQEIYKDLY
# Peroxisome proliferator-activated receptor gamma/Nuclear receptor coactivator 1, sequence (Q15788 whole entry, further chain): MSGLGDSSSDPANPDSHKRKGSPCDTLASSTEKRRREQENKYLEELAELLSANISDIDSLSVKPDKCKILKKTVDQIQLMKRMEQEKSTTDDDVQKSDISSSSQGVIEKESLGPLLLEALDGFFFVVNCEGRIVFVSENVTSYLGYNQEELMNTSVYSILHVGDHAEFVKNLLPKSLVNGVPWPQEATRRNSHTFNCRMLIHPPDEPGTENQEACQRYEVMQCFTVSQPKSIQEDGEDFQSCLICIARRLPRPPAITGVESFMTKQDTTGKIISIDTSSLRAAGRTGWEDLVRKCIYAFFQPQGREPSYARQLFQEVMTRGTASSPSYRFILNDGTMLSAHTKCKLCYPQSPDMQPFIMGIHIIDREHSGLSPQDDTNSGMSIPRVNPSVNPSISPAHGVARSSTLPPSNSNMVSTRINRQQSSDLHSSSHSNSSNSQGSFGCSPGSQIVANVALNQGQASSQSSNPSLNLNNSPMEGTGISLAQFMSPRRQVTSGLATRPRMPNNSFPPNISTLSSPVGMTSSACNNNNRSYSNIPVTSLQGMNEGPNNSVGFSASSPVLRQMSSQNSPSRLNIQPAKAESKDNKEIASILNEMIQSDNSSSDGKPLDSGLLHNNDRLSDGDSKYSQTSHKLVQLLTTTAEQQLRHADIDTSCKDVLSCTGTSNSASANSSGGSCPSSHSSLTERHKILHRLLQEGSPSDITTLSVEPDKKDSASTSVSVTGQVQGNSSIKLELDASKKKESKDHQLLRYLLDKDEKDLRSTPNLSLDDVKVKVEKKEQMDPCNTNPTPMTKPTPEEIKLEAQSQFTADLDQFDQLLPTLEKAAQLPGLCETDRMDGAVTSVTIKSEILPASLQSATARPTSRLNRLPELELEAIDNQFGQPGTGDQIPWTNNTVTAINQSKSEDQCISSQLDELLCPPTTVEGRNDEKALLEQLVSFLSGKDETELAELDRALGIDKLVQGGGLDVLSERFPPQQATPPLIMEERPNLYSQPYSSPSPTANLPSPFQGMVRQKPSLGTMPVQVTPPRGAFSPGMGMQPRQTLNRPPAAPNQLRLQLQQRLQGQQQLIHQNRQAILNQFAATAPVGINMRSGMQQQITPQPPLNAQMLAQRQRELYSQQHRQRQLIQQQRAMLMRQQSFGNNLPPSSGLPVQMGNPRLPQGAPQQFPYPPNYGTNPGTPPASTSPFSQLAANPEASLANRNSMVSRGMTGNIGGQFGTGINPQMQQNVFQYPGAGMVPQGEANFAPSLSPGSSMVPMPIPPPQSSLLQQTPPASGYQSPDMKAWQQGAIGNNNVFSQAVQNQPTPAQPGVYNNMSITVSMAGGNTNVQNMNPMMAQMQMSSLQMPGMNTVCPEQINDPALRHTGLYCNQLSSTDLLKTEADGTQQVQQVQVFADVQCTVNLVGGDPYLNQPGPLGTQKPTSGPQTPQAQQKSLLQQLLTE
# [7] = target: Peroxisome proliferator-activated receptor gamma/Nuclear receptor coactivator 3 (Homo sapiens, UniProt P37231); format: functional;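 further: agonist potency for raising coactivator recruitment to the receptor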
# [8] = target: Peroxisome proliferator-activated receptor gamma/Nuclear receptor coactivator 2 (Homo sapiens, UniProt P37231); format: functional;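 further: agonist potency for raising coactivator recruitment to the receptor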
# [9] = target: T5, Zinc finger protein mex-5 (Caenorhabditis elegans, UniProt Q9XUB2); assay: MEX-5/TCR-2 RNA interaction inhibitors, dose response, biochemical, C. elegans, fluorescence polarization (AID 1960)
# T5 sequence (Q9XUB2 whole entry): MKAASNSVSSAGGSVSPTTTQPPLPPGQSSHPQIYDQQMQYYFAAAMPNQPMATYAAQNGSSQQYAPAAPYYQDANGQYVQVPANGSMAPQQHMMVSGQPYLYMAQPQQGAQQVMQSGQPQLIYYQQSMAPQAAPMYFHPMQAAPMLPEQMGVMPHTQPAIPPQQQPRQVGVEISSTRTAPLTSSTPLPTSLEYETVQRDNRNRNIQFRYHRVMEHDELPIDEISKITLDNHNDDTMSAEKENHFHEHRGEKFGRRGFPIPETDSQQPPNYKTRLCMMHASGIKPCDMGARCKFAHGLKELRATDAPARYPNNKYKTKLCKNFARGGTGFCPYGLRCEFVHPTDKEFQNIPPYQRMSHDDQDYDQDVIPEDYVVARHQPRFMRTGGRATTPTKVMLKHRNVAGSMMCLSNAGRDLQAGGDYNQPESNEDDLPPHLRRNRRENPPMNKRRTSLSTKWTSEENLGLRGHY
# [10] = target: T6, RNA-binding protein pos-1 (Caenorhabditis elegans, UniProt G5EF15); assay: inhibitors of POS-1/mex-3 RNA binding, dose response, biochemical, fluorescence polarization (AID 1964);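 further: purified POS-1 fused to maltose binding protein made in E. coli; potency of compounds blocking POS-1 binding to fluorescent RNA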
# T6 sequence (G5EF15 whole entry): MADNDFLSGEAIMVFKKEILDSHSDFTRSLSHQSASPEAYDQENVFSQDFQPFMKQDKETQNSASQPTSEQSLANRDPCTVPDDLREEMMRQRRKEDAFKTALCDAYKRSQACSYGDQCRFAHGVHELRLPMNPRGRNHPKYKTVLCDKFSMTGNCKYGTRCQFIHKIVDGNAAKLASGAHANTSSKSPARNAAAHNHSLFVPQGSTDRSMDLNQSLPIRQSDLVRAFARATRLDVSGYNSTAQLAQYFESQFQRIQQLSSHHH
# [11] = target: T7, Polyadenylate-binding protein 1 (Homo sapiens, UniProt P11940); assay: PABP1 MLLE–PAM2 binding inhibitor potency, dose response, biochemical, fluorescence polarization, FITC-PAM2 peptide (AID 602259); format: functional; details: read-out: IC50_Mean
# T7 sequence (P11940 whole entry): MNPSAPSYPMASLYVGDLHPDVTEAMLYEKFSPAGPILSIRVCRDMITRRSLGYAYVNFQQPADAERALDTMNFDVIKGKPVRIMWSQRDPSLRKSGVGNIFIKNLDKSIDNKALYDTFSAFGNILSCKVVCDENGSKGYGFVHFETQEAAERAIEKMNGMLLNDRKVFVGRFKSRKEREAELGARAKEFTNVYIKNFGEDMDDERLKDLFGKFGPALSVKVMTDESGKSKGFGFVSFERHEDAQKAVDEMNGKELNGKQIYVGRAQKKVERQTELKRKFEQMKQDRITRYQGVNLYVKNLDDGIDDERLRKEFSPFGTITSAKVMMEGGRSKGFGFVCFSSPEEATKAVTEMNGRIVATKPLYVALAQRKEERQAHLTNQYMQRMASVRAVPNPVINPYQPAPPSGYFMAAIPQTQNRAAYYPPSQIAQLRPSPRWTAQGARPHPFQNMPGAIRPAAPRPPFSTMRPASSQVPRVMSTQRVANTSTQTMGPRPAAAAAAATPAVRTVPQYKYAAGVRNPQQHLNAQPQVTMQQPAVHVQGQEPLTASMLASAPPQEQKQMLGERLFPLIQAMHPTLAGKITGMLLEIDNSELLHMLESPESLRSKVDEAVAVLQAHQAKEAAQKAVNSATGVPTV
# [12] = target: T7, Polyadenylate-binding protein 1; assay: PABP1 MLLE–PAM2 interaction inhibitors, dose response, miRNA deadenylation inhibitor project, biochemical, fluorescence polarization, Cy5-PAM2 peptide, secondary (AID 602260); format: functional; details: read-out: IC50_Mean
# Cytochrome P450 2C9 [13] = target: T1, Cytochrome P450 2C9
# Cytochrome P450 2C19 [14] = target: T2, Cytochrome P450 2C19; assay: Cytochrome panel assay with activity outcomes. Panel member name: p450-cyp2c19 Compounds with AC50 equal or less than 10 uM are considered active; format: functional; details: read-out: AC50
# Vero [15] = assay: cytotoxicity of synthesized analogs in Vero cells, SAR follow-up, cytotoxicity control for West Nile virus antiviral project, cell-based, set II (AID 2402); format: functional; details: Chlorocebus sabaeus
# Vero [16] = assay: cytotoxicity of synthesized analogs in Vero 76, SAR follow-up, cytotoxicity control for West Nile virus antiviral project, Vero 76 cells (AID 2414); format: functional; details: Chlorocebus sabaeus
# Vero [17] = assay: Vero E6 cell cytotoxicity, SAR follow-up, cytotoxicity control for West Nile virus antiviral project, synthesized analogs (AID 2244); format: functional; details: Chlorocebus sabaeus
# [18] = target: T8, Heat shock factor protein 1 (Mus musculus, UniProt P38532); assay: HSF1 potentiators in luciferase reporter cells, confirmation, cell-based, NIH3T3, luminescence, dose retest (AID 435004); format: functional;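 further: stress induced by proteasome inhibitor MG132 added 30 min after compound; luciferase reporter driven by HSF1 response element in NIH3T3 cells; actives raise luminescence as potentiators of the MG132 stress response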
# T8 sequence (P38532 whole entry): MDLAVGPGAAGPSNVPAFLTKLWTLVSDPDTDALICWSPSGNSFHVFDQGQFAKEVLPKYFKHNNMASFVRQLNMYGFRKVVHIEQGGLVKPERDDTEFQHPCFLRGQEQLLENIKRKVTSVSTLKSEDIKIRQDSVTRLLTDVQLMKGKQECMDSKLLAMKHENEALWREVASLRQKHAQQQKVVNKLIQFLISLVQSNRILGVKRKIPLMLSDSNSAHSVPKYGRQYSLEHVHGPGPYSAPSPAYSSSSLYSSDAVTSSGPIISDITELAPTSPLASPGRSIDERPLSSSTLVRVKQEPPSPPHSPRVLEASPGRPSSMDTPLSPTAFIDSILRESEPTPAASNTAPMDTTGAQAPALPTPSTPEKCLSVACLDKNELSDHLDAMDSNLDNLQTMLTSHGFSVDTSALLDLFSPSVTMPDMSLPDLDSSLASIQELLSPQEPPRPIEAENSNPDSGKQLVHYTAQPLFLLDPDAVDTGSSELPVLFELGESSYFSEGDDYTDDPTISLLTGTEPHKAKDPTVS
# [19] = target: T9, Alkaline phosphatase, tissue-nonspecific isozyme (Homo sapiens, UniProt P05186)
# T9 sequence (P05186 whole entry): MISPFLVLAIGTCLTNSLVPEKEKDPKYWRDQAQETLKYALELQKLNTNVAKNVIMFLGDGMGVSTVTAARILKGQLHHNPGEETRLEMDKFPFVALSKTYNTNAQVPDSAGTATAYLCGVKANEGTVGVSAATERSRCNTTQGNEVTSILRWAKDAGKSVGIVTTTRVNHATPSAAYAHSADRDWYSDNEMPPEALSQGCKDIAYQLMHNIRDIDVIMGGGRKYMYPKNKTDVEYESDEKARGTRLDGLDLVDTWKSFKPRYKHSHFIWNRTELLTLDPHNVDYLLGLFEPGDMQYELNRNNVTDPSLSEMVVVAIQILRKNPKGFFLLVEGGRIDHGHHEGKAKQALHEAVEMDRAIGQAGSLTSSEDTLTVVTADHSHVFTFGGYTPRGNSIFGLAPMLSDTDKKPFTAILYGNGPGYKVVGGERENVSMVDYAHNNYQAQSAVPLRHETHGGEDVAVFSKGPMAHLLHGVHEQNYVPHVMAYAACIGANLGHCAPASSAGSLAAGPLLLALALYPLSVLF
# [20] = target: T10, Short transient receptor potential channel 4 (Mus musculus, UniProt Q9QUQ5); assay: mouse TRPC4 channel activators, dose response, cell-based, HEK293 TRPC4/mu-opioid, Fluo-4 calcium (AID 434937); format: functional
# T10 sequence (Q9QUQ5 whole entry): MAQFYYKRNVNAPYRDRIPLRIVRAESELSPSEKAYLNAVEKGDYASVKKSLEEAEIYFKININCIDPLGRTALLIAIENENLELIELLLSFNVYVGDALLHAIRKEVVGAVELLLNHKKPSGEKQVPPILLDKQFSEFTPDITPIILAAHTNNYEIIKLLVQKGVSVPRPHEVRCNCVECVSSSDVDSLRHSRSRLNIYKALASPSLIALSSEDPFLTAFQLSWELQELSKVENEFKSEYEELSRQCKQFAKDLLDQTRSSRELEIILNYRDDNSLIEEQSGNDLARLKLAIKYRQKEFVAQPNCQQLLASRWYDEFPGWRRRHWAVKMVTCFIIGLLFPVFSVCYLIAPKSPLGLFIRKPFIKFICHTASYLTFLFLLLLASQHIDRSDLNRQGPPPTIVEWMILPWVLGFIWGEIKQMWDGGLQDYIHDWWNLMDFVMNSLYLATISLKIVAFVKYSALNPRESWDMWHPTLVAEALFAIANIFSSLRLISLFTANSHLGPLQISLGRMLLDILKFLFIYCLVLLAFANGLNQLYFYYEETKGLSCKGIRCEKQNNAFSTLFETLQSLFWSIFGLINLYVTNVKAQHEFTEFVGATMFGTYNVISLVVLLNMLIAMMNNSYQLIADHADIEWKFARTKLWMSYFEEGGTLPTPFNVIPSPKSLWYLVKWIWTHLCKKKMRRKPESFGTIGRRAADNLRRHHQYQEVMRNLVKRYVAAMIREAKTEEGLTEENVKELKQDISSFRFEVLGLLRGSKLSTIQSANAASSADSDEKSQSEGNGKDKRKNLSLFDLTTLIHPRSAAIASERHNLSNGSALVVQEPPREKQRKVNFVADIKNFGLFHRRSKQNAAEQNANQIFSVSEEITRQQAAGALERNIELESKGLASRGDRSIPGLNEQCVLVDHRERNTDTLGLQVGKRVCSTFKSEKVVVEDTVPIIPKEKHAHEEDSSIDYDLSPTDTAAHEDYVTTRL
# Salmon testes DNA = assay: DNA intercalators displacing acridine orange, dose response, artefact control for KSHV LANA DNA-binding inhibitor project, biochemical, fluorescence polarization, cherry-picked samples, set 2 (AID 504727); parameters: species or system Salmonidae
# HeLa = assay: HeLa cell cytotoxicity, dose response, cytotoxicity control, 24 h, cherry-picked samples (AID 504726); format: functional, cell-based; details: Homo sapiens;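 further: potency for cytotoxicity as loss of luminescence signal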
# Protein Rev, sequence (P04618 whole entry): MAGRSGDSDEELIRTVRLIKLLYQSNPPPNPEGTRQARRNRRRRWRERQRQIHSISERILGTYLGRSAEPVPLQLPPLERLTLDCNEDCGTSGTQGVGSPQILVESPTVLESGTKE
compound,measurement,setting,value
CC(C)CCN(C(=O)CCCSc1nc2ccccc2[nH]1)c1c(N)n(Cc2ccccc2)c(=O)[nH]c1=O,IC50,Protein Rev,> 8.38 µM (active)
same,IC50,[1],3.12 µM (active)
CC(C)[C@@H](CC(=O)N[C@@H]1CCCC[C@H]1C(=O)N[C@H](CC(=O)N[C@@H](CCC(=O)O)CC(=O)O)Cc1ccccc1)NC(=O)C[C@H](CO)NC(=O)[C@@H]1CCCC[C@H]1N,AC50,Cytochrome P450 2C9 [2],39.8 µM (inconclusive)
same,AC50,Cytochrome P450 2C19 [3],39.8 µM (inconclusive)
COc1ccc(C[C@H]2c3cc(OC)c(OC)cc3CCN2C)cc1OC,AC50,Cytochrome P450 2D6 [4],6.31 µM (inconclusive)
same,AC50,Cytochrome P450 2D6 [5],12.6 µM (inconclusive)
CC(=O)c1c(CC(=O)O)[nH]n(-c2nc3ccccc3s2)c1=O,IC50,Bcl-2-like protein 10,71.2 µM (inactive)
O=C(CCCn1c(=O)[nH]c2ccc(Br)cc2c1=O)NCc1ccc(Cl)cc1,EC50,[6],> 79.4 µM (not active)
same,EC50,[7],> 79.4 µM (not active)
same,EC50,[8],> 79.4 µM (not active)
COc1ccc(NC(=O)Nc2cc(C)cc(C)c2)cn1,EC50,[9],27.4 µM (active)
same,EC50,[10],186 µM (active)
same,IC50,Protein Rev,11.4 µM (not active)
same,IC50,[11],21.8 µM (inactive)
same,IC50,[1],7.15 µM (active)
same,IC50,[12],> 66 µM (inactive)
O=C1c2ccccc2C(O)(O)[C@@]1(O)[C@]1(O)C(=O)c2ccccc2C1(O)O,AC50,Cytochrome P450 2D6 [5],7.94 µM (inconclusive)
CC(C)C(=O)Nc1ccc([N+](=O)[O-])c(C(F)(F)F)c1 [FLUTAMIDE],AC50,Cytochrome P450 2C9 [2],39.8 µM (inconclusive)
same,AC50,Cytochrome P450 2C9 [13],12.6 µM (inconclusive)
same,AC50,Cytochrome P450 2C19 [14],10 µM (inconclusive)
O=C(CSc1nc2ccccc2c(=O)n1-c1ccc(F)cc1)Nc1cccc2ccccc12,CC50,Vero [15],> 100 µM (active)
same,CC50,Vero [16],> 66.6 µM (active)
same,CC50,Vero [17],> 40 µM (active)
O=C(COC(=O)c1ccccc1C(=O)c1ccccc1)NCCc1ccccc1,EC50,[18],> 260 µM (inactive)
same,EC50,[6],> 79.4 µM (not active)
same,EC50,[7],> 79.4 µM (not active)
same,EC50,[8],> 79.4 µM (not active)
O=C1NC(=O)[C@]2(Cc3ccccc3N3CCN(c4ccccc4)CC32)C(=O)N1c1ccccc1 (some centres not stated),IC50,Bcl-2-like protein 10,54 µM (inactive)
COc1ccc(-n2cc(CNCCc3nc(C)c[nH]3)c(-c3ccccc3Cl)n2)cc1,EC50,[19],66.1 µM (not active)
same,EC50,[20],5.96 µM (active)
Cc1nnc2sc(-c3csc4c3CCCC4)nn12,AC50,Salmon testes DNA,73.6 µM (active)
same,AC50,HeLa,26.3 µM (active)

# From ChEMBL document CHEMBL1201862, “PubChem BioAssay data set” (2004)
